Assay results taken from patent publication US11492385B2, “Long-acting co-agonists of the glucagon and GLP-1 receptors” (Merck Sharp & Dohme Corp., priority 2015, dated 2022).
Entries after “also recorded” stand apart in the source; their conditions may differ. Starred links: 1 amine or outer side, 2 acyl side, 3 side chain; linkers in the order of their positions; H or OH if unused. Non-standard residues stand in square brackets, D forms with d. Residues, ends and D or L forms follow the SMILES beside them. Groups on a side chain read outwards from the residue. No end group written: not given here. *: point of attachment. Phe(4-CH2NH2) = NCc1ccc(C[C@H](N)C(=O)O)cc1; C18 diacid = O=C(O)CCCCCCCCCCCCCCCCC(=O)*; C16 diacid = O=C(O)CCCCCCCCCCCCCCC(=O)*; γGlu = O=C(O)[C@H](CCC(=O)[*:2])N[*:1]; Met(O2) = CS(=O)(=O)CC[C@H](N)C(=O)O; αMeD = C[C@](N)(CC(=O)O)C(=O)O; αMeL = CC(C)C[C@](C)(N)C(=O)O; AEEA = NCCOCCOCC(=O)O; Aib = CC(C)(N)C(=O)O

Columns and labels:
[1] = Duration of action in DIO mice: blood glucose after a single sc dose; assay type: in vivo; details: single sc dose at day zero, compared to liraglutide and semaglutide (FIG. 1C)
Protocol: (§1) In this example, the duration of action of several of the peptides or co-agonist peptides was evaluated in diet-induced obese (DIO) mice. The duration of action of the peptides were compared to the duration of action of Semaglutide (sema) and Liraglutide (lira). The peptides tested were SEQ ID NOs: 2, 19, 28, 29, and 33 (Seq 2, Seq 19, Seq 28, Seq 29, and Seq 33, respectively).

[2] = Duration of action in DIO mice: body weight after a single sc dose; assay type: in vivo; details: for change in body weight over four days: single sc dose at day zero, compared to liraglutide and semaglutide (FIG. 1A)
Protocol: as §1

[3] = Duration of action in DIO mice: food intake after a single sc dose; assay type: in vivo; details: for change in food intake over four days: single sc dose at day zero, compared to liraglutide and semaglutide (FIG. 1B)
Protocol: as §1

[4] = mouse, in vivo, sc
Protocol: DIO mice were divided into groups of eight mice per group and the initial average body weight, food intake and basal glucose of each group were matched. Each group of mice was subcutaneously (sc) injected with a single dose of peptide or vehicle control. The administered doses varied between 3 and 300 nmol/kg. […] A separate set of mice were treated with same dose of each peptide. Serial blood was taken at 5 hours, 24 hours, 48 hours and 72 hours post sc injection to measure drug exposure.

human GLP1R = biological target: T1, human GLP1R (Homo sapiens, UniProt P43220); test: cAMP activity assay, cells expressing human GLP1R; assay type: cell-based; details: cAMP production, assay buffer with or without 20% human serum (not stated which)
T1 construct: expressed in transfected cells; kept under Blasticidin and Hygromycin selection
T1 sequence (P43220 24-463): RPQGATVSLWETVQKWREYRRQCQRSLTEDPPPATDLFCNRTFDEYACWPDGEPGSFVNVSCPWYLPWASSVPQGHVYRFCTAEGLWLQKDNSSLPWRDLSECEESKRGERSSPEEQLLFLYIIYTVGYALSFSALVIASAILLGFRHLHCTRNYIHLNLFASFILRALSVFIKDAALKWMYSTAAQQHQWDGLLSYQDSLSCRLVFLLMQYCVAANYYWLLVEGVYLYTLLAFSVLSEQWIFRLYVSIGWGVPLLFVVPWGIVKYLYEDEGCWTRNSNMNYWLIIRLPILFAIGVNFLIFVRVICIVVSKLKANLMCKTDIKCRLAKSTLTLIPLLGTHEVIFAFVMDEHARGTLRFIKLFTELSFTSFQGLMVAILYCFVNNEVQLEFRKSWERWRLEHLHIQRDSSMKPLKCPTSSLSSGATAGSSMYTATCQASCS
Summary of the method: (§2)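 Peptides as 10-point titrations from DMSO tested on cells expressing human GLP1R or GCGR. cAMP measured by luminescent kit after overnight room-temperature incubation in the dark. EC50 from four-parameter logistic fit; native GLP-1 and glucagon as controls.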

human GCGR = biological target: T2, human GCGR (Homo sapiens, UniProt P47871); test: cAMP activity assay, cells expressing human GCGR; assay type: cell-based; details: for EC50: cAMP production, cells expressing human GCGR, assay buffer with or without 20% human serum (not stated which), read-out: GCGR EC50 human; for hGCGR/hGLP1R (hTone): ratio of human GCGR EC50 to human GLP1R EC50
T2 construct: expressed in transfected cells; kept under Blasticidin and Hygromycin selection
T2 sequence (P47871 26-477): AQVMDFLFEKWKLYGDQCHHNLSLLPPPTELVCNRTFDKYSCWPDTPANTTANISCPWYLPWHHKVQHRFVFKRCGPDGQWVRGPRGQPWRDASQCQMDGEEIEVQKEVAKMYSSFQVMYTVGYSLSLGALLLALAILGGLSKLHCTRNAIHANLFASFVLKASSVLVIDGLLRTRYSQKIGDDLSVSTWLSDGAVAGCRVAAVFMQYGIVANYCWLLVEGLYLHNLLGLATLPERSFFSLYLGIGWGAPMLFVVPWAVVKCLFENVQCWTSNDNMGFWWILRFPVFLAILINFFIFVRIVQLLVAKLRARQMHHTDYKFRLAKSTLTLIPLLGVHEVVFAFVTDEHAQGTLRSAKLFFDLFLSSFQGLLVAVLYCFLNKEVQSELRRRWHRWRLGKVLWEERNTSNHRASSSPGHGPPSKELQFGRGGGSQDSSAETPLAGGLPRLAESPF
Summary of the method: as §2

Molecule | change in body weight over four days [2] | change in food intake over four days [3] | EC50 (human GLP1R) | EC50 (human GCGR) | hGCGR/hGLP1R (hTone) (human GCGR) | also measured
HXQGTFTSDpAF( ? -γE-C18—OH)SKYLDARAAQDFVQWL2DT—NH2 (H[Aib]QGTFTSD[Phe(4-CH2NH2)]([AEEA-AEEA-γGlu-C18‑OH])SKYLDARAAQDFVQWL[Met(O2)]DT-NH2) [SEQ ID NO: 28] | more pronounced and sustained change in body weight | more sustained reduction in food intake | – | – | – | blood glucose lowering effect over four days [1]: greater reduction in blood glucose
HsQGTFTSDYSKYLDARAAK( ? -γE-C16—OH)DFVQWLLDT—NH2 (H[dS]QGTFTSDYSKYLDARAAK([AEEA-AEEA-γGlu-C16 diacid])DFVQWLLDT-NH2; N-terminus assumed; SMILES CC(C)C[C@H](NC(=O)[C@H](Cc1ccc(O)cc1)NC(=O)[C@H](CCCCN)NC(=O)[C@H](CO)NC(=O)[C@H](Cc1ccc(O)cc1)NC(=O)[C@H](CC(=O)O)NC(=O)[C@H](CO)NC(=O)[C@@H](NC(=O)[C@H](Cc1ccccc1)NC(=O)[C@@H](NC(=O)CNC(=O)[C@H](CCC(N)=O)NC(=O)[C@@H](CO)NC(=O)[C@@H](N)Cc1c[nH]cn1)[C@@H](C)O)[C@@H](C)O)C(=O)N[C@@H](CC(=O)O)C(=O)N[C@@H](C)C(=O)N[C@@H](CCCNC(=N)N)C(=O)N[C@@H](C)C(=O)N[C@@H](C)C(=O)N[C@@H](CCCCNC(=O)COCCOCCNC(=O)COCCOCCNC(=O)CC[C@H](NC(=O)CCCCCCCCCCCCCCC(=O)O)C(=O)O)C(=O)N[C@@H](CC(=O)O)C(=O)N[C@@H](Cc1ccccc1)C(=O)N[C@H](C(=O)N[C@@H](CCC(N)=O)C(=O)N[C@@H](Cc1c[nH]c2ccccc12)C(=O)N[C@@H](CC(C)C)C(=O)N[C@@H](CC(C)C)C(=O)N[C@@H](CC(=O)O)C(=O)N[C@H](C(N)=O)[C@@H](C)O)C(C)C) [SEQ ID NO: 2] | more pronounced and sustained change in body weight | more sustained reduction in food intake | – | – | – | –
HXQGTFTSDYSKYLDARAAK( ? -γE-C18—OH)DFVQWL2αMDT—NH2 (H[Aib]QGTFTSDYSKYLDARAAK([AEEA-AEEA-γGlu-C18‑OH])DFVQWL[Met(O2)][αMeD]T-NH2) [SEQ ID NO: 33] | – | – | – | – | – | blood glucose lowering effect over four days ([1]; listed as Seq 33): greater reduction in blood glucose; also recorded: particularly effective; PK over three days [4]: more prolonged PK; change in body weight over four days ([2]; listed as Seq 33): more pronounced and sustained change in body weight; also recorded: particularly pronounced; change in food intake over four days ([3]; listed as Seq 33): more sustained reduction in food intake; also recorded: particularly evident
HXQGTFTSDYSKYLDARAAK( ? -γE-C16—OH)DFVQWL2DT—NH2 (H[Aib]QGTFTSDYSKYLDARAAK([AEEA-AEEA-γGlu-C16 diacid])DFVQWL[Met(O2)]DT-NH2; N-terminus assumed; SMILES CC(C)C[C@H](NC(=O)[C@H](Cc1ccc(O)cc1)NC(=O)[C@H](CCCCN)NC(=O)[C@H](CO)NC(=O)[C@H](Cc1ccc(O)cc1)NC(=O)[C@H](CC(=O)O)NC(=O)[C@H](CO)NC(=O)[C@@H](NC(=O)[C@H](Cc1ccccc1)NC(=O)[C@@H](NC(=O)CNC(=O)[C@H](CCC(N)=O)NC(=O)C(C)(C)NC(=O)[C@@H](N)Cc1c[nH]cn1)[C@@H](C)O)[C@@H](C)O)C(=O)N[C@@H](CC(=O)O)C(=O)N[C@@H](C)C(=O)N[C@@H](CCCNC(=N)N)C(=O)N[C@@H](C)C(=O)N[C@@H](C)C(=O)N[C@@H](CCCCNC(=O)COCCOCCNC(=O)COCCOCCNC(=O)CC[C@H](NC(=O)CCCCCCCCCCCCCCC(=O)O)C(=O)O)C(=O)N[C@@H](CC(=O)O)C(=O)N[C@@H](Cc1ccccc1)C(=O)N[C@H](C(=O)N[C@@H](CCC(N)=O)C(=O)N[C@@H](Cc1c[nH]c2ccccc12)C(=O)N[C@@H](CC(C)C)C(=O)N[C@@H](CCS(C)(=O)=O)C(=O)N[C@@H](CC(=O)O)C(=O)N[C@H](C(N)=O)[C@@H](C)O)C(C)C) [SEQ ID NO: 19] | more pronounced and sustained change in body weight | more sustained reduction in food intake | – | – | – | blood glucose lowering effect over four days [1]: greater reduction in blood glucose; PK over three days [4]: more prolonged PK; change in body weight over eight days ([2]; single dose at 20 nmol/kg or 60 nmol/kg at day zero, compared to liraglutide and semaglutide (FIG. 3A)): more pronounced and sustained change in body weight; change in food intake over eight days ([3]; single dose at 20 nmol/kg or 60 nmol/kg at day zero, compared to liraglutide and semaglutide (FIG. 3B)): comparable to liraglutide or semiglutide in reducing food intake
HXQGTFTSDYSKYLDARAAK( ? -γE-C18—OH)DFVQWL2DT—NH2 (H[Aib]QGTFTSDYSKYLDARAAK([AEEA-AEEA-γGlu-C18‑OH])DFVQWL[Met(O2)]DT-NH2) [SEQ ID NO: 29] | – | – | – | – | – | blood glucose lowering effect over four days ([1]; listed as Seq 29): greater reduction in blood glucose; blood glucose lowering effect over four days ([1]; listed as Seq29): particularly effective; change in body weight over four days ([2]; listed as Seq 29): more pronounced and sustained change in body weight; also recorded: particularly pronounced; change in food intake over four days ([3]; listed as Seq 29): more sustained reduction in food intake; also recorded: particularly evident
CC(C)C[C@H](NC(=O)[C@H](Cc1c[nH]c2ccccc12)NC(=O)[C@H](CCC(N)=O)NC(=O)[C@@H](NC(=O)[C@H](Cc1ccccc1)NC(=O)[C@H](CC(=O)O)NC(=O)[C@H](CCCCNC(=O)COCCOCCNC(=O)COCCOCCNC(=O)CC[C@H](NC(=O)CCCCCCCCCCCCCCC(=O)O)C(=O)O)NC(=O)[C@H](C)NC(=O)[C@H](C)NC(=O)[C@H](CCCNC(=N)N)NC(=O)[C@H](C)NC(=O)[C@H](CC(=O)O)NC(=O)[C@](C)(CC(C)C)NC(=O)[C@H](Cc1ccc(O)cc1)NC(=O)[C@H](CCCCN)NC(=O)[C@H](CO)NC(=O)[C@H](Cc1ccc(O)cc1)NC(=O)[C@H](CC(=O)O)NC(=O)[C@H](CO)NC(=O)[C@@H](NC(=O)[C@H](Cc1ccccc1)NC(=O)[C@@H](NC(=O)CNC(=O)[C@H](CCC(N)=O)NC(=O)C(C)(C)NC(=O)[C@@H](N)Cc1c[nH]cn1)[C@@H](C)O)[C@@H](C)O)C(C)C)C(=O)N[C@@H](CCS(C)(=O)=O)C(=O)N[C@@H](CC(=O)O)C(=O)N[C@H](C(N)=O)[C@@H](C)O [compound 38] (H-H[Aib]QGTFTSDYSKY[αMeL]DARAAK([AEEA-AEEA-γGlu-C16 diacid])DFVQWL[Met(O2)]DT-NH2) | – | – | 0.1 nM | 0.46 nM | 4.54 | –
CC(C)C[C@H](NC(=O)[C@H](Cc1ccc(O)cc1)NC(=O)[C@H](CCCCN)NC(=O)[C@H](CO)NC(=O)[C@H](Cc1ccc(CNC(=O)COCCOCCNC(=O)COCCOCCNC(=O)CC[C@H](NC(=O)CCCCCCCCCCCCCCC(=O)O)C(=O)O)cc1)NC(=O)[C@H](CC(=O)O)NC(=O)[C@H](CO)NC(=O)[C@@H](NC(=O)[C@H](Cc1ccccc1)NC(=O)[C@@H](NC(=O)CNC(=O)[C@H](CCC(N)=O)NC(=O)[C@@H](CO)NC(=O)[C@@H](N)Cc1c[nH]cn1)[C@@H](C)O)[C@@H](C)O)C(=O)N[C@@H](CC(=O)O)C(=O)N[C@@H](CCC(=O)O)C(=O)N[C@@H](CCCNC(=N)N)C(=O)N[C@@H](C)C(=O)N[C@@H](C)C(=O)N[C@@H](CCC(N)=O)C(=O)N[C@@H](CC(=O)O)C(=O)N[C@@H](Cc1ccccc1)C(=O)N[C@H](C(=O)N[C@@H](CCC(N)=O)C(=O)N[C@@H](Cc1c[nH]c2ccccc12)C(=O)N[C@@H](CC(C)C)C(=O)N[C@@H](CC(C)C)C(=O)N[C@@H](CCCCN)C(=O)N[C@H](C(N)=O)[C@@H](C)O)C(C)C [compound 10] (H-H[dS]QGTFTSD[Phe(4-CH2NH2)]([AEEA-AEEA-γGlu-C16 diacid])SKYLDERAAQDFVQWLLKT-NH2; N-terminus assumed) | – | – | 0.46 nM | 0.12 nM | 0.26 | –
CC(C)C[C@H](NC(=O)[C@H](Cc1ccc(O)cc1)NC(=O)[C@H](CCCCN)NC(=O)[C@H](CO)NC(=O)[C@H](Cc1ccc(O)cc1)NC(=O)[C@H](CC(=O)O)NC(=O)[C@H](CO)NC(=O)[C@@H](NC(=O)[C@H](Cc1ccccc1)NC(=O)[C@@H](NC(=O)CNC(=O)[C@H](CCC(N)=O)NC(=O)C(C)(C)NC(=O)[C@@H](N)Cc1c[nH]cn1)[C@@H](C)O)[C@@H](C)O)C(=O)N[C@@H](CC(=O)O)C(=O)N[C@@H](C)C(=O)N[C@@H](CCCNC(=N)N)C(=O)N[C@@H](C)C(=O)N[C@@H](C)C(=O)N[C@@H](CCC(N)=O)C(=O)N[C@@H](CC(=O)O)C(=O)N[C@@H](Cc1ccccc1)C(=O)N[C@H](C(=O)N[C@@H](CCC(N)=O)C(=O)N[C@@H](Cc1c[nH]c2ccccc12)C(=O)N[C@@H](CC(C)C)C(=O)N[C@@H](CCS(C)(=O)=O)C(=O)N[C@@H](Cc1ccc(CNC(=O)COCCOCCNC(=O)COCCOCCNC(=O)CC[C@H](NC(=O)CCCCCCCCCCCCCCCCC(=O)O)C(=O)O)cc1)C(=O)N[C@H](C(N)=O)[C@@H](C)O)C(C)C [compound 77] (H-H[Aib]QGTFTSDYSKYLDARAAQDFVQWL[Met(O2)][Phe(4-CH2NH2)]([AEEA-AEEA-γGlu-C18 diacid])T-NH2; N-terminus assumed) | – | – | 0.47 nM | 1.09 nM | 2.3 | –
